Measurements: US11458083B2, “Cosmetic and/or dermatological composition containing a merocyanine derivative comprising specific polar groups consisting of hydroxyl- and ether-functionalities” (L'OREAL, priority 2011, dated 2022)

Legend:
Assay type in all cases: physicochemical
[1] = UV shielding properties: UV spectra in ethanol; design: Absorption maximum λmax: unit not given here; details: UV spectrum in ethanol
Text: The UV shielding properties of the merocyanine derivatives are investigated by measuring their UV spectra in ethanol. In the following table the investigated absorption maxima (Amax) together with the corresponding A^1%1cm values are listed.

[2] = Storage (chemical) stability in water/ethanol solution, UPLC; details: 0.5% in water/ethanol 1/1, 45° C.
Protocol: The chemical stability of the compounds can be assessed in a water/ethanol solution 1/1 with compounds solubilized at 0.5%.
(§1) Once the solution prepared, it is placed in an oven at 45° C. for 2 months for stability and 1 h at 60° C. for acidic stress. Then the solution is aliquoted (0.005% w/v in H2O/ACN 50/50) for liquid chromatography analysis to check disappearance or not.
(§2) UPLC Acquity (Waters) with diod array detector eλ (Waters).
(§3) Column: Acquity HSS T3 (Waters), length: 50 mm, Inner diameter: 2.1 mm, particles diameter 1.8 μm. Mobile phase A=ammonium acetate 20 mM, B=Acetonitrile.
(§4) • Flow rate: 0.5 mL/min • T: 20° C. • Detection at UV 383 nm

[3] = Acid media stability (HCl 0.1M), UPLC; details: HCl 0.1M in water/ethanol/isopropanol 50/40/10 (v/v/v), 1 h at 60° C.
Protocol: These solutions could be acidified to check also stability toward acid media for example HCl 0.1M in a water/ethanol/isopropanol 50/40/10 (v/v/v).
as §1, §2, §3, §4

[4] = Photostability of the UV filters in a formula film exposed to a solar simulator (HPLC); details: film about 20 μm, UVA dose 42 J/cm^2
Text: The percentage of residual amount of each UV filter (merocyanine compound and dibenzoylmethane compound) caused by the exposure to a solar simulator of a formula spread in a film having a thickness of about 20 μm was measure. The evaluation was done by HPLC analysis of each UV filter in a solution after extraction of the film, by comparing exposed and non-exposed samples. Solar simulator: Apparatus Oriel […] equipped with a 4 pouces outlet, a 81017 filter and a dichroic mirror. The samples were exposed in horizontal position. The UV exposure was characterized by: • a UVB flux of 0.35-0.45 mW/cm^2 • a UVA flux 16-18 mW/cm^2. Each residual amount of each UV filter was measured by HPLC chromatography with a sensor having diodes bars. About 20 mg of the composition are spread on the surface of a rough melt silica disc. 3 films of composition were exposed to the solar simulator and 3 other films were used as control. The samples were exposed 3 per 3 to the light of the simulator during a sufficient time delivering an UVA dose of 42 J/cm^2. At the end of the exposure, the disc was introduced in a bowl of 600 ml with 10 ml of appropriate solvent (ie generally ethanol). The disc and the bowl were then placed during 5 minutes in an ultrasonic tank.

SMILES | A^1%1 cm at absorption maximum [1] | Absorption maximum λmax [1] | Storage stability 2 months 45° C. [2] | Acid media stability 1 h 60° C. (loss) [3] | % of residual merocyanine compound 4 after UV exposure ([4]; in composition Example 9 (with 2% avobenzone)) [%] | % of residual Avobenzone after UV exposure ([4]; in composition Example 9 (with 1% merocyanine compound 4)) [%]
COCCOC(=O)/C(C#N)=C/C=C/N(CCOC)CCOC [Compound 2] | 2046 | 380 | – | – | – | –
N#C/C(=C\C=C\N1CCCCC1)C(=O)OCC(O)CO (centres unmarked) [Compound 7] | 2467 | 381 | – | – | – | –
CCOCCOC(=O)/C(C#N)=C/C=C/N1CCCCC1 [Compound 4] | 2568 | 381 | – | – | 85 | –
COc1ccc(C(=O)CC(=O)c2ccc(C(C)(C)C)cc2)cc1 [Avobenzone, 4-(tert-butyl)-4′-methoxydibenzoylmethane, reference compound] | – | – | – | – | – | 91
N#C/C(=C\C=C\N1CCCCC1)C(=O)NCCO [Compound 6] | 2530 | 380 | – | – | – | –
CCCCOC(=O)/C(C#N)=C/C=C/N(CCO)CCCC [Compound 12] | 2235 | 381 | – | – | – | –
COCCOCCOC(=O)/C(C#N)=C/C=C/N1CCCCC1 [Compound 5] | 2252 | 381 | – | – | – | –
N#C/C(=C\C=C\N1CCOCC1)C(=O)OCC(O)CO (centres unmarked) [Compound 9] | 2414 | 380 | – | – | – | –
CCOCCOC(=O)/C(C#N)=C/C=C/N(CCOC)CCOC [Compound 3] | 1965 | 380 | – | – | – | –
CCOC(=O)/C(C#N)=C/C=C/N(CCOC)CCOC [Compound 1] | 2283 | 380 | – | – | – | –

Second part, the molecule after the results:

A^1%1 cm at absorption maximum [1] | Absorption maximum λmax [1] | Storage stability 2 months 45° C. [2] | Acid media stability 1 h 60° C. (loss) [3] | % of residual merocyanine compound 4 after UV exposure ([4]; in composition Example 9 (with 2% avobenzone)) [%] | % of residual Avobenzone after UV exposure ([4]; in composition Example 9 (with 1% merocyanine compound 4)) [%] | SMILES
2207 | 385 | – | – | – | – | CCOC(=O)/C(C#N)=C1\C=C(NCCCOC)CCC1 [Compound 14]
1947 | 385 | No loss | Loss 4% | – | – | CCOCCOC(=O)/C(C#N)=C1\C=C(NCCCOC)CCC1 [Compound 25, 2-ethoxyethyl (2Z)-cyano{3-[(3-methoxypropyl)amino]cyclohex-2-en-1-ylidene}ethanoate]
2036 | 385 | – | – | – | – | CCCCCCCCOC(=O)/C(C#N)=C/C=C/N(CC)CCO [Compound 18]
2083 | 385 | – | – | – | – | CC(C)COC(=O)/C(C#N)=C1\C=C(NCC(C)O)CCC1 (centres unmarked) [Compound 17]
1644 | 385 | No loss | Loss 100% | – | – | COCCCNC(=O)/C(C#N)=C1\C=C(NCCCOC)CCC1 [Compound 15]
2230 | 381 | – | – | – | – | CCCN(/C=C/C=C(\C#N)C(=O)OCC(O)CO)CCC (centres unmarked) [Compound 23]
1618 | 386 | – | – | – | – | CCCCC(CC)CNC1=C/C(=C(/C#N)C(=O)NCCO)CCC1 (centres unmarked) [Compound 16]
